According to patent US10112899B2 (ViiV HEALTHCARE UK LIMITED, priority 2014, dated 2018):

System: HIV in the HTLV-1 transformed cell line MT-4
Experiment: organism not typed
Type: cell-based
Conditions: MT4, 96 h, MT-4 cells; luciferase/cell titer glo readout after 96 hours; 10 point dose response

Cc1ccc(-c2c(C)c3c(c(C)c2[C@H](OC(C)(C)C)C(=O)O)CN(C(=O)N2CC4CCC(C2)O4)C3)cc1 [Example 75, (2S)-2-(tert-butoxy)-2-[4,7-dimethyl-6-(4-methylphenyl)-2-{8-oxa-3-azabicyclo[3.2.1]octane-3-carbonyl}-2,3-dihydro-1H-isoindol-5-yl]acetic acid]
IC50: 34 nM

Cc1ccc(-c2c(C)c3c(c(C)c2[C@H](OC(C)(C)C)C(=O)O)CN(C(=O)N2CCCOCC2)C3)cc1 [Example 76, (2S)-2-(tert-butoxy)-2-[4,7-dimethyl-6-(4-methylphenyl)-2-(1,4-oxazepane-4-carbonyl)-2,3-dihydro-1H-isoindol-5-yl]acetic acid]
IC50: 12 nM

Cc1ccc(-c2c(C)c3c(c(C)c2[C@H](OC(C)(C)C)C(=O)O)CN(C(=O)N2CC[C@H](O)C2)C3)cc1 [Example 77, (2S)-2-(tert-butoxy)-2-{2-[(3S)-3-hydroxypyrrolidine-1-carbonyl]-4,7-dimethyl-6-(4-methylphenyl)-2,3-dihydro-1H-isoindol-5-yl}acetic acid]
IC50: 160 nM

Cc1ccc(-c2c(C)c3c(c(C)c2[C@H](OC(C)(C)C)C(=O)O)CN(C(=O)N(C)CC2CCCCC2)C3)cc1 [Example 78, (2S)-2-(tert-butoxy)-2-{2-[(cyclohexylmethyl)(methyl)carbamoyl]-4,7-dimethyl-6-(4-methylphenyl)-2,3-dihydro-1H-isoindol-5-yl}acetic acid]
IC50: 126 nM

Cc1ccc(-c2c(C)c3c(c(C)c2[C@H](OC(C)(C)C)C(=O)O)CN(C(=O)NCCOCc2ccccc2)C3)cc1 [Example 79, (2S)-2-(2-{[2-(benzyloxy)ethyl]carbamoyl}-4,7-dimethyl-6-(4-methylphenyl)-2,3-dihydro-1H-isoindol-5-yl)-2-(tert-butoxy)acetic acid]
IC50: 231 nM

Cc1ccc(-c2c(C)c3c(c(C)c2[C@H](OC(C)(C)C)C(=O)O)CN(C(=O)N2CCN4CCC[C@@H]4C2)C3)cc1 [Example 80, (2S)-2-{2-[(8aR)-octahydropyrrolo[1,2-a]piperazine-2-carbonyl]-4,7-dimethyl-6-(4-methylphenyl)-2,3-dihydro-1H-isoindol-5-yl}-2-(tert-butoxy)acetic acid]
IC50: 381 nM

Cc1ccc(-c2c(C)c3c(c(C)c2[C@H](OC(C)(C)C)C(=O)O)CN(C(=O)N2CCC(C)CC2)C3)cc1 [Example 81, (S)-2-(tert-butoxy)-2-(4,7-dimethyl-2-(4-methylpiperidine-1-carbonyl)-6-(p-tolyl)isoindolin-5-yl)acetic acid]
IC50: 16 nM

Cc1ccc(-c2c(C)c3c(c(C)c2[C@H](OC(C)(C)C)C(=O)O)CN(C(=O)N2CC4CCCC4C2)C3)cc1 (stereo partly drawn) [Example 82, (2S)-2-(tert-butoxy)-2-(4,7-dimethyl-2-(octahydrocyclopenta[c]pyrrole-2-carbonyl)-6-(p-tolyl)isoindolin-5-yl)acetic acid]
IC50: 14 nM

Cc1ccc(-c2c(C)c3c(c(C)c2[C@H](OC(C)(C)C)C(=O)O)CN(C(=O)N2[C@H]4CC[C@@H]2CC4)C3)cc1 [Example 83, (S)-2-(2-((1R,4R)-7-azabicyclo[2.2.1]heptane-7-carbonyl)-4,7-dimethyl-6-(p-tolyl)isoindolin-5-yl)-2-(tert-butoxy)acetic acid]
IC50: 6 nM

Cc1ccc(-c2c(C)c3c(c(C)c2[C@H](OC(C)(C)C)C(=O)O)CN(C(=O)N2CCC(C)(C)CC2)C3)cc1 [Example 84, (S)-2-(tert-butoxy)-2-(2-(4,4-dimethylpiperidine-1-carbonyl)-4,7-dimethyl-6-(p-tolyl)isoindolin-5-yl)acetic acid]
IC50: 11 nM

CC(=O)N1CCN(C(=O)N2Cc3c(C)c(-c4ccc(C)cc4)c([C@H](OC(C)(C)C)C(=O)O)c(C)c3C2)CC1 [Example 85, (S)-2-(2-(4-acetylpiperazine-1-carbonyl)-4,7-dimethyl-6-(p-tolyl)isoindolin-5-yl)-2-(tert-butoxy)acetic acid]
IC50: 120 nM

Cc1ccc(-c2c(C)c3c(c(C)c2[C@H](OC(C)(C)C)C(=O)O)CN(C(=O)N2CCNCC2)C3)cc1 [Example 86, (S)-2-(tert-butoxy)-2-(4,7-dimethyl-2-(piperazine-1-carbonyl)-6-(p-tolyl)isoindolin-5-yl)acetic acid]
IC50: 1160 nM

Cc1ccc(-c2c(C)c3c(c(C)c2[C@H](OC(C)(C)C)C(=O)O)CN(C(=O)N2CCC[C@@H]2C)C3)cc1 [Example 87, (S)-2-(tert-butoxy)-2-(4,7-dimethyl-2-((S)-2-methylpyrrolidine-1-carbonyl)-6-(p-tolyl)isoindolin-5-yl)acetic acid]
IC50: 5 nM

Cc1ccc(-c2c(C)c3c(c(C)c2[C@H](OC(C)(C)C)C(=O)O)CN(C(=O)N2C[C@H](C)OC[C@H]2C)C3)cc1 [Example 88, (S)-2-(tert-butoxy)-2-(2-((2S,5R)-2,5-dimethylmorpholine-4-carbonyl)-4,7-dimethyl-6-(p-tolyl)isoindolin-5-yl)acetic acid]
IC50: 18 nM

Cc1ccc(-c2c(C)c3c(c(C)c2[C@H](OC(C)(C)C)C(=O)O)CN(C(=O)N2CCC(F)CC2)C3)cc1 [Example 89, (S)-2-(tert-butoxy)-2-(2-(4-fluoropiperidine-1-carbonyl)-4,7-dimethyl-6-(p-tolyl)isoindolin-5-yl)acetic acid]
IC50: 11 nM

Cc1ccc(-c2c(C)c3c(c(C)c2[C@H](OC(C)(C)C)C(=O)O)CN(C(=O)N2CCN(C)C(=O)C2)C3)cc1 [Example 90, (S)-2-(tert-butoxy)-2-(4,7-dimethyl-2-(4-methyl-3-oxopiperazine-1-carbonyl)-6-(p-tolyl)isoindolin-5-yl)acetic acid]
IC50: 267 nM

Cc1ccc(-c2c(C)c3c(c(C)c2[C@H](OC(C)(C)C)C(=O)O)CN(C(=O)N2CCOC[C@@H]2C)C3)cc1 [Example 91, (S)-2-(tert-butoxy)-2-(4,7-dimethyl-2-((S)-3-methylmorpholine-4-carbonyl)-6-(p-tolyl)isoindolin-5-yl)acetic acid]
IC50: 13 nM

Cc1ccc(-c2c(C)c3c(c(C)c2[C@H](OC(C)(C)C)C(=O)O)CN(C(=O)N2CCC(F)(F)CC2)C3)cc1 [Example 92, (S)-2-(tert-butoxy)-2-(2-(4,4-difluoropiperidine-1-carbonyl)-4,7-dimethyl-6-(p-tolyl)isoindolin-5-yl)acetic acid]
IC50: 16 nM

Cc1ccc(-c2c(C)c3c(c(C)c2[C@H](OC(C)(C)C)C(=O)O)CN(C(=O)N2CCCC(C)(C)C2)C3)cc1 [Example 93, (S)-2-(tert-butoxy)-2-(2-(3,3-dimethylpiperidine-1-carbonyl)-4,7-dimethyl-6-(p-tolyl)isoindolin-5-yl)acetic acid]
IC50: 7 nM

Cc1ccc(-c2c(C)c3c(c(C)c2[C@H](OC(C)(C)C)C(=O)O)CN(C(=O)NCC(F)(F)F)C3)cc1 [Example 94, (S)-2-(tert-butoxy)-2-(4,7-dimethyl-6-(p-tolyl)-2-((2,2,2-trifluoroethyl)carbamoyl)isoindolin-5-yl)acetic acid]
IC50: 44 nM

Cc1ccc(-c2c(C)c3c(c(C)c2[C@H](OC(C)(C)C)C(=O)O)CN(C(=O)N2CCC(Cc4ccccc4)CC2)C3)cc1 [Example 95, (S)-2-(2-(4-benzylpiperidine-1-carbonyl)-4,7-dimethyl-6-(p-tolyl)isoindolin-5-yl)-2-(tert-butoxy)acetic acid]
IC50: 778 nM

Cc1ccc(-c2c(C)c3c(c(C)c2[C@H](OC(C)(C)C)C(=O)O)CN(C(=O)N2CC[C@@H](F)C2)C3)cc1 [Example 96, (S)-2-(tert-butoxy)-2-(2-((R)-3-fluoropyrrolidine-1-carbonyl)-4,7-dimethyl-6-(p-tolyl)isoindolin-5-yl)acetic acid]
IC50: 14 nM

Cc1ccc(-c2c(C)c3c(c(C)c2[C@H](OC(C)(C)C)C(=O)O)CN(C(=O)NC(C)(C)c2ccccc2)C3)cc1 [Example 97, (S)-2-(tert-butoxy)-2-(4,7-dimethyl-2-((2-phenylpropan-2-yl)carbamoyl)-6-(p-tolyl)isoindolin-5-yl)acetic acid]
IC50: 144 nM

Cc1ccc(-c2c(C)c3c(c(C)c2[C@H](OC(C)(C)C)C(=O)O)CN(C(=O)N2CCC(N4CCOCC4)CC2)C3)cc1 [Example 98, (S)-2-(tert-butoxy)-2-(4,7-dimethyl-2-(4-morpholinopiperidine-1-carbonyl)-6-(p-tolyl)isoindolin-5-yl)acetic acid]
IC50: 2300 nM

Cc1ccc(-c2c(C)c3c(c(C)c2[C@H](OC(C)(C)C)C(=O)O)CN(C(=O)N[C@@H](C)C2CCCCC2)C3)cc1 [Example 99, (S)-2-(tert-butoxy)-2-(2-(((S)-1-cyclohexylethyl)carbamoyl)-4,7-dimethyl-6-(p-tolyl)isoindolin-5-yl)acetic acid]
IC50: 45 nM

Cc1ccc(-c2c(C)c3c(c(C)c2[C@H](OC(C)(C)C)C(=O)O)CN(C(=O)c2cccc4c2OCCO4)C3)cc1 [Example 105, (S)-2-(tert-butoxy)-2-(2-(2,3-dihydrobenzo[b][1,4]dioxine-5-carbonyl)-4,7-dimethyl-6-(p-tolyl)isoindolin-5-yl)acetic acid]
IC50: 14 nM

Cc1ccc(-c2c(C)c3c(c(C)c2[C@H](OC(C)(C)C)C(=O)O)CN(C(=O)CN2CCCCC2)C3)cc1 [Example 106, (S)-2-(tert-butoxy)-2-(4,7-dimethyl-2-(2-(piperidin-1-yl)acetyl)-6-(p-tolyl)isoindolin-5-yl)acetic acid]
IC50: 143 nM

Cc1ccc(-c2c(C)c3c(c(C)c2[C@H](OC(C)(C)C)C(=O)O)CN(C(=O)C2CCCCC2)C3)cc1 [Example 107, (S)-2-(tert-butoxy)-2-(2-(cyclohexanecarbonyl)-4,7-dimethyl-6-(p-tolyl)isoindolin-5-yl)acetic acid]
IC50: 7 nM

Cc1ccc(-c2c(C)c3c(c(C)c2[C@H](OC(C)(C)C)C(=O)O)CN(C(=O)C(C)(C)C)C3)cc1 [Example 109, (S)-2-(tert-butoxy)-2-(4,7-dimethyl-2-pivaloyl-6-(p-tolyl)isoindolin-5-yl)acetic acid]
IC50: 36 nM

Cc1ccc(-c2c(C)c3c(c(C)c2[C@H](OC(C)(C)C)C(=O)O)CN(C(=O)CC(C)(C)C)C3)cc1 [Example 110, (S)-2-(tert-butoxy)-2-(2-(3,3-dimethylbutanoyl)-4,7-dimethyl-6-(p-tolyl)isoindolin-5-yl)acetic acid]
IC50: 6 nM
